According to PubChem BioAssay AID1033 (Sanford-Burnham Center for Chemical Genomics, 2008):
Active and inactive are the calls of the source. The rule behind the calls is not given here.

Molecular target: Chaperone protein DnaK (Escherichia coli (strain K12)) (UniProt P0A6Y8)
Experiment: E. coli DnaK SBD ligand binding – biophysical, NMR, chaperone (AID 1033)
Settings: Purified DnaK SBD

Sequence of Chaperone protein DnaK (Escherichia coli (strain K12)) (P0A6Y8 whole entry, looked up): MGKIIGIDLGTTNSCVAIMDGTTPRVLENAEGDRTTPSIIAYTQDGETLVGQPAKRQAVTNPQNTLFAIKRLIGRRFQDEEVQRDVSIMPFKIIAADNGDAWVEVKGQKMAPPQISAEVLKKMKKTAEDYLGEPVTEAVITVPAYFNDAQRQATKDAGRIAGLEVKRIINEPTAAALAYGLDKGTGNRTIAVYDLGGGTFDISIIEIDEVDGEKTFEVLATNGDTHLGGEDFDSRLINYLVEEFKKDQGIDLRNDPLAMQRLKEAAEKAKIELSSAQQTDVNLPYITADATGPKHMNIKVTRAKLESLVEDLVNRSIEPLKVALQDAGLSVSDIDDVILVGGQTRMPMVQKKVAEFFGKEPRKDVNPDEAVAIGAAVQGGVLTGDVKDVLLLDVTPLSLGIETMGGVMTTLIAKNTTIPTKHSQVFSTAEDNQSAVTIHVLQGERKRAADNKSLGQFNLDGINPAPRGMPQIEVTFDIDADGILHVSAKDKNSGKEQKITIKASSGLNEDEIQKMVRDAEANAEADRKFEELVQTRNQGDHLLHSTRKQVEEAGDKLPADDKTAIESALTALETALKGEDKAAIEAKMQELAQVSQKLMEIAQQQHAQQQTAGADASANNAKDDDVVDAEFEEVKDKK

| SMILES | Kd |
| --- | --- |
| O=C(Nc1c[nH]c(=O)[nH]c1=O)c1ccccc1F | > 4 mM (inactive) |
| Cc1cc(SCCF)n2ncnc2n1 | > 4 mM (inactive) |
| Cc1ccc(-c2nnc3sc(-c4ccncc4)nn23)cc1 | > 4 mM (inactive) |
| Cc1cccnc1NC1=NCC(C)S1 (configuration not stated) | > 4 mM (inactive) |
| COc1ccc(/C=C2\SC(N)=NC2=O)cc1 | > 4 mM (inactive) |
| O=C(NC1=NCCS1)c1ccc2snnc2c1 | > 4 mM (inactive) |
| COc1cc(-c2coc3cc(OC)c(OC)c(OC)c3c2=O)cc(OC)c1OC | > 4 mM (inactive) |
| Cc1cc(C)c(-c2cc(C(F)(F)F)no2)c(=O)[nH]1 | > 4 mM (inactive) |
| Cc1cccc(NC(=O)NC(N)=O)c1 | > 4 mM (inactive) |
| Cc1ccn(S(=O)(=O)c2ccc(C(C)(C)C)cc2)n1 | > 4 mM (inactive) |
| Cc1onc(-c2ccccc2)c1C(=O)O | > 4 mM (inactive) |
| Cn1cc(Cl)c(C(=O)Nc2ccc(F)cc2F)n1 | > 4 mM (inactive) |
| CC(C)=CCc1c2c(c(O)c3c(=O)c(O)c(-c4ccccc4)oc13)C=CC(C)(C)O2 | > 4 mM (inactive) |
| Nc1cc(N)nc(SCc2cccnc2)n1 | > 4 mM (inactive) |
| COC(=O)c1cccs1 | > 4 mM (inactive) |
| CC(C)CCCC1(C)C=Cc2c(O)c3c(c(CCC(C)C)c2O1)OC12C(CC4CC1C(C)(C)OC2(CCC(C)C(=O)O)C4O)C3=O (configuration not stated) | > 4 mM (inactive) |
| Cc1noc(C)c1CSc1nc2ccccc2[nH]1 | > 4 mM (inactive) |
| COc1ccc2c(c1OC)OC[C@@H](c1ccc(OC)c(OC)c1OC)C2 | > 4 mM (inactive) |
| O=C(NC1=NCCS1)c1cccc(F)c1 | > 4 mM (inactive) |
| NC(=O)C1CCN(C2CC(=O)NC2=O)CC1 (configuration not stated) | > 4 mM (inactive) |
| O=C(COc1ccccc1Cl)N1CCCC1 | > 4 mM (inactive) |
| CCP(=O)(CC)c1cccc(C)c1 | > 4 mM (inactive) |
| C[C@@H]1CCC2[C@](C)(CO)[C@@H](O)CC[C@]2(C)[C@@]12CC[C@@](CO)(CCO)O2 (some centres not stated) | > 4 mM (inactive) |
| Cc1ccc(N2C(=O)CC(=O)NC2=O)cc1 | > 4 mM (inactive) |

| SMILES | Kd |
| --- | --- |
| CC(=O)O[C@]1(C)CC[C@@]23CC1C(C)(C)[C@@H]2CC[C@H]3C | > 4 mM (inactive) |
| NC12CC3CC(C1)CC(CC(=O)O)(C3)C2 | > 4 mM (inactive) |
| Clc1ncc2[nH]cnc2n1 | > 4 mM (inactive) |
| NC(=O)c1c[nH]c2ccccc12 | > 4 mM (inactive) |
| CC(=O)Nc1nc2c(s1)C(=O)NCCC2 | > 4 mM (inactive) |
| COC(=O)c1cncn1C | > 4 mM (inactive) |
| O=P(c1ccccc1)(c1ccccc1)C1CCOCC1 | > 4 mM (inactive) |
| CN1CCN(CC(=O)NC2CCCCC2)CC1 | > 4 mM (inactive) |
| O=C(O)c1cccnc1 | > 4 mM (inactive) |
| Cn1cc(Cl)c(C(=O)NC2CCCC2)n1 | > 4 mM (inactive) |
| Cn1[nH]c(C(F)(F)F)cc1=O | > 4 mM (inactive) |
| CCc1nnsc1C(=O)Nc1nccs1 | > 4 mM (inactive) |
| Cc1cc(C(=O)N2CCOCC2)c(C)o1 | > 4 mM (inactive) |
| Cc1cc(=O)oc2c1c(C)nn2CN1CCN(C)CC1 | > 4 mM (inactive) |
| CC(=O)Nc1cccc(-c2nnc3n2CC(C)S3)c1 (configuration not stated) | > 4 mM (inactive) |
| NC(=O)CSc1ccccn1 | > 4 mM (inactive) |
| O=C(NCc1ccccn1)c1ccc(Cl)cc1Cl | > 4 mM (inactive) |
| COc1ccccc1-c1n[nH]c(=O)o1 | > 4 mM (inactive) |
| CC(=O)c1nnc2cc(C)nn2c1C | > 4 mM (inactive) |
| Cc1ccc2[nH]cc(CCN)c2c1 | > 4 mM (inactive) |
| CNC(=O)c1cccc(NC(=S)NC)c1 | > 4 mM (inactive) |
| C=C1CCC2[C@](C)(CO)[C@H](O)CC[C@@]2(C)[C@@H]1C/C=C1/C(=O)OC[C@H]1O (some centres not stated) | > 4 mM (inactive) |
| NC(=O)CSc1ncnc2ccccc12 | > 4 mM (inactive) |
| OCC1CCCCCN1 (configuration not stated) | > 4 mM (inactive) |

| SMILES | Kd |
| --- | --- |
| O=C(O)C1CC(=O)N(Cc2ccc(F)cc2)C1 (configuration not stated) | > 4 mM (inactive) |
| NS(=O)(=O)c1ccc(NC(=O)C(F)(F)F)cc1 | > 4 mM (inactive) |
| CSc1nnc(CN2CCSCC2)n1C | > 4 mM (inactive) |
| NC(C(=O)O)C(O)c1ccccc1 (configuration not stated) | > 4 mM (inactive) |
| O=C(Nc1nnc(-c2ccncc2)o1)c1cccs1 | > 4 mM (inactive) |
| NC(=O)CCN1C(=O)c2ccccc2C1=O | > 4 mM (inactive) |
| COc1ccccc1-c1c(C)nn2c(C)c(C(C)=O)cnc12 | > 4 mM (inactive) |
| CC1(C)O[C@H]2[C@H](O)C[C@](O)(C(N)=O)C[C@H]2O1 | > 4 mM (inactive) |
| O=C1CS/C(=N/N=C2CCCC2)N1 | > 4 mM (inactive) |
| Cc1cc(-c2ccc(Cl)cc2)n2nc(N)nc2n1 | > 4 mM (inactive) |
| O=C1CCC(C(=O)NCc2cccnc2)N1 (configuration not stated) | > 4 mM (inactive) |
| NC(=O)CSc1nnc2ccc(-c3ccccn3)nn12 | > 4 mM (inactive) |
| O=C(NC1CSCC1O)c1ccccc1 (configuration not stated) | > 4 mM (inactive) |
| Cc1nn(-c2ccccc2)nc1CN | > 4 mM (inactive) |
| O=C1CSC(=S)N1Cc1cccnc1 | > 4 mM (inactive) |
| Cc1cc(NC(=O)c2cnn3cccnc23)no1 | > 4 mM (inactive) |
| O=c1n(-c2ccccc2)c(=O)n2n1CCCC2 | > 4 mM (inactive) |
| Cc1cc(C(=O)N2CCN(c3ncccn3)CC2)c(C)o1 | > 4 mM (inactive) |
| C[N+](C)(C)CC(O)CC(=O)O (configuration not stated) | > 4 mM (inactive) |
| CC(=O)CC1CCCCN1 (configuration not stated) | > 4 mM (inactive) |
| COc1ccccc1Nc1nncc(=O)[nH]1 | > 4 mM (inactive) |
| N[C@@H](Cc1cc(I)c(Oc2cc(I)c(O)c(I)c2)c(I)c1)C(=O)O | > 4 mM (inactive) |
| CC(=O)NC(=S)Nc1ccccc1C(N)=O | > 4 mM (inactive) |
| Cc1ccc(N2C(=O)C3C4C=CC(O4)C3C2=O)cc1 (configuration not stated) | > 4 mM (inactive) |

| SMILES | Kd |
| --- | --- |
| CC(=O)CS(=O)(=O)c1ccccc1 | > 4 mM (inactive) |
| CSc1nc(NC(C)C)nc(N2CCOCC2)n1 | > 4 mM (inactive) |
| NC(=O)CN1CCCCCC1=O | > 4 mM (inactive) |
| CCC(C)C(=O)O[C@@H]1C[C@@]2(C)[C@H](c3ccoc3)OC(=O)CC23OC2(C)O[C@]14[C@]1(C)[C@@H](CC(=O)OC)C5(C)CC1(O)[C@](O)(C5OC(=O)C1(C)OC1C)[C@@H](OC(C)=O)[C@]34O2 (some centres not stated) | > 4 mM (inactive) |
| Cc1nnc(SCC(=O)N2CCc3ccccc32)s1 | > 4 mM (inactive) |
| CSc1ccccc1NC(=O)c1ccoc1C | > 4 mM (inactive) |
| O=C1CCCCCN1CO | > 4 mM (inactive) |
| Cc1ccc(/C=C2/C(=O)N=C(N)N2C)s1 | > 4 mM (inactive) |
| CC1(C)Cc2nc3[nH]c(=S)[nH]c(=O)c3cc2CO1 | > 4 mM (inactive) |
| Cn1cnc2ccc([N+](=O)[O-])cc2c1=O | > 4 mM (inactive) |
| Cc1ccc2c(c1)=C(c1sc(N)nc1O)C(=O)N=2 | > 4 mM (inactive) |
| COC(=O)c1cc(-c2c[nH]c3ccccc23)n[nH]1 | > 4 mM (inactive) |
| c1ccc(Cc2nn3c(-c4ccncc4)nnc3s2)cc1 | > 4 mM (inactive) |
| CCOc1ccc(C(=O)c2ccncc2)cc1 | > 4 mM (inactive) |
| Nc1cccnc1Oc1ccc(F)cc1F | > 4 mM (inactive) |
| OC1CCNC2CCCCC12 (configuration not stated) | > 4 mM (inactive) |
| CCNCC(O)c1ccc([N+](=O)[O-])cc1 (configuration not stated) | > 4 mM (inactive) |
| O=C(O)c1cccc(O)c1O | > 4 mM (inactive) |
| O=c1cc(-c2ccccc2)oc2cc(O)cc(O)c12 | > 4 mM (inactive) |
| NC(=O)c1ccsc1NC(=O)C1=COCCO1 | > 4 mM (inactive) |
| O=C(O)c1ccc(N2CCOCC2)cc1 | > 4 mM (inactive) |
| Cc1nc2ccccc2c(=O)n1N1C(=O)CCCC1=O | > 4 mM (inactive) |
| NS(=O)(=O)c1ccc(NC(=O)c2cccs2)cc1 | > 4 mM (inactive) |
| O=C(Nc1ccccc1)Nc1ccccn1 | > 4 mM (inactive) |

| SMILES | Kd |
| --- | --- |
| O=C(NN1CCOCC1)c1cccs1 | > 4 mM (inactive) |
| Cn1c(=O)c2c(ncn2CCN)n(C)c1=O | > 4 mM (inactive) |
| CC(=O)Nc1ccc(NC(=O)/C=C\C(=O)O)cc1 | > 4 mM (inactive) |
| O=C1CSC2=NCCCN12 | > 4 mM (inactive) |
| CN1C(=O)N(C)C2NC(=O)NC21 (configuration not stated) | > 4 mM (inactive) |
| CCOCC(=O)NCc1n[nH]c(=O)c2ccccc12 | > 4 mM (inactive) |
| Cc1nn2c3ccccc3nc2n(Cc2ccccc2)c1=O | > 4 mM (inactive) |
| Nc1cc(C(F)(F)F)ccc1N1CCOCC1 | > 4 mM (inactive) |
| O=C(c1ccc(F)cc1)C1CCNCC1 | > 4 mM (inactive) |
| C[C@@H]1OC(O[C@H]2[C@H](OC(=O)[C@]34CCC(C)(C)CC3C3=CCC5[C@@]6(C)CC[C@H](OC7O[C@@H](C)[C@H](O[C@@H]8OC[C@@H](O)[C@H](O)[C@H]8O)[C@@H](O)[C@H]7O)C(C)(C)C6CC[C@@]5(C)[C@]3(C)CC4O)OC[C@H](O)[C@H]2O)[C@H](O)[C@H](O)[C@H]1O[C@@H]1O[C@H](CO)[C@@H](O)[C@H](O)[C@H]1O (some centres not stated) | > 4 mM (inactive) |
| O=C(O)c1ccc(CSc2ncn[nH]2)cc1 | > 4 mM (inactive) |
| O=c1[nH]cc(S(=O)(=O)Nc2ccccc2)c(=O)[nH]1 | > 4 mM (inactive) |
| O=S1(=O)CCC(N2CCCCC2)C1 (configuration not stated) | > 4 mM (inactive) |
| CC(=O)O[C@H]1CC[C@@]2(C)C(CC[C@]3(C)C2CC=C2C4CC(C)(C)CC[C@]4(C)CC[C@]23C)C1(C)C (some centres not stated) | > 4 mM (inactive) |
| CSc1ccc(S(=O)(=O)N2CCCC2)cc1 | > 4 mM (inactive) |
| CC(=O)NCS(=O)(=O)c1ccc(C)cc1 | > 4 mM (inactive) |
| Oc1ccccc1-c1nnco1 | > 4 mM (inactive) |
| CN1C(=O)/C(=C/c2ccc(O)cc2O)SC1=S | > 4 mM (inactive) |
| CSc1nc(C)c(Oc2ccccc2)c(=O)n1C | > 4 mM (inactive) |
| COC(=O)[C@@H]1OC(=O)C2OC23[C@@]1(C)CCC1[C@]2(C)C(C[C@@H](O)[C@]13C)C(C)(C)[C@H](OC(C)=O)C[C@@H]2OC(C)=O (some centres not stated) | > 4 mM (inactive) |
| Cn1c(=O)[nH]c(=O)c2c1ncn2CCN1CCCCC1 | > 4 mM (inactive) |
